Measurements: patent US20230241046A1, “SOLID DISPERSION OF OPICAPONE” (BIAL - PORTELA & CA, S.A., priority 2020, published 2023)

Tests used:
[1] = Fasted state simulated gastric fluid (FaSSGF) kinetic solubility assay; format: physicochemical; details: kinetic solubility in FaSSGF, 0-24 h
Procedure: (§1) The content of opicapone in kinetic solubility studies was analysed by HPLC coupled to a UV/Vis detector (Waters series, USA). A C18 column was used. The mobile phase consisted of 0.1% o-phophoric acid and acetonitrile (68:32 v/v).
Kinetic solubility studies on the opicapone solid dispersion were performed at room temperature at a loading equivalent to˜10 mg of opicapone per mL of FaSSGF, in a total of 5 mL of medium. Samples were tested at 0, 0.5, 1, 2, 4 and 24 hours (Klein, AAPS J., 2010, 12, 397-406).
(§2) Area under the Concentration Curve (AUC), Cmax and other pharmacokinetic parameters were calculated using GraphPad Prism 7 for Windows (GraphPad Software, USA).

[2] = Fasted state simulated intestinal fluid (FaSSIF) kinetic solubility assay; format: physicochemical; details: kinetic solubility in FaSSIF, 0-24 h
Procedure: as §1
Kinetic solubility studies on the opicapone solid dispersion were performed at room temperature at a loading equivalent to˜75 mg of opicapone per mL of FaSSIF, in a total of 5 mL of medium. Samples were tested at 0, 0.5, 1, 2, 4 and 24 hours (Klein, AAPS J., 2010, 12, 397-406).
as §2

[3] = In vivo pharmacokinetics after oral administration; details: male Wistar rats, 3 mg/kg of opicapone, plasma
Procedure: The pharmacokinetics of solid dispersions of amorphous opicapone were evaluated in male Wistar rats, after oral administration of Sample 1, 4 or 6, or a control sample of micronised crystalline opicapone, at a dose of 3 mg/kg of opicapone. The exposure of these solid dispersions, formulated as a HPMC suspensions (50 mg of opicapone per 100 mL of 0.2% HPMC), were compared with the exposure of micronised crystalline opicapone, at a dose of 3 mg/kg of opicapone.
During the studies, blood was collected at different time points, from tail vein, spun at 1500×g in a refrigerated centrifuge (4° C.) for 15 min, and the plasma obtained was stored at −80° C. until further analysis. The plasma samples collected from twenty animals (140 samples), were analysed for opicapone exposure. The bioanalysis involved the use of LC-MS/MS after plasma precipitation.

[4] = Particle size distribution (circle equivalent diameter) by SEM; format: physicochemical; details: particle size distribution (equivalent circular diameter) after micronisation, MC JETMILL 200
Procedure: A Phenom Pro-X Electron microscope (PhenomWorld, Thermo Fisher Scientific, USA) equipped with a CeB6 electron source and backscatter electron detector was used to determine the morphology and particle size of the samples.
The powder was placed on conductive adhesive tape. The holder for non-conductive samples was used. The excess of sample (loosely bound to the tape) was removed using compressed air.
Particle morphology was assessed by Automated Image Mapping software and particle size determination was made by Particlemetric software.

For `Cc1c(Cl)c(C)[n+]([O-])c(Cl)c1-c1noc(-c2cc(O)c(O)c([N+](=O)[O-])c2)n1` [Opicapone Control, opicapone], the AUC ([1]; Experiment 1) was 7.625 µg·h/mL, the Cmax ([1]; Experiment 1) was 0.3 µg/mL and the AUC ([1]; Experiment 2) was 5.75 µg·h/mL. The Cmax ([1]; Experiment 2) was 0.3 µg/mL, the tmax ([1]; Experiment 2) was 24 h and the AUC ([1]; Experiment 3) was 5.86 µg·h/mL. For the same compound, the Cmax ([1]; Experiment 3) was 0.26 µg/mL, the tmax ([1]; Experiment 3) was 24 h and the tmax ([2]; room temperature, Experiment 1) was 24 h. The AUC ([2]; Experiment 1) was 1589 µg·h/mL, the Cmax ([2]; Experiment 1) was 69 µg/mL and the AUC ([2]; Experiment 2) was 1310 µg·h/mL. It also gave a Cmax ([2]; Experiment 2) of 86 µg/mL, a tmax ([2]; Experiment 2) of 2 h and an AUC ([2]; Experiment 3) of 1400 µg·h/mL. It also gave a Cmax ([2]; Experiment 3) of 89 µg/mL, a tlast [3] of 8 h and an AUC(0-t) ([3]; rat) of 1.4 µg·h/mL. It also gave a Cmax ([3]; rat) of 0.379 µg/mL, a tmax ([3]; rat) of 2 h and a concentration at 8 h ([3]; rat, read-out: Clast) of 0.0786 µg/mL. The D10 [4] was ≥ 4 μm, the D50 [4] was 10-40 μm and the D95 [4] was ≤ 80 μm.
